US12371428B2 (Exelixis, Inc., priority 2019, dated 2025)
Read-outs that look alike come from different tables or passages of the source.

What was measured:
[1] = molecular target: Human MET (residues 956-1390) (Homo sapiens (Human), UniProt P08581); experiment: Human Met kinase assay, HTRF KinEase (Example D-2); assay type: biochemical; settings: read-out: c-Met IC50
Outline: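 IC50 values come from a 4-parameter logistic fit of the […] fluorescence ratio, set between DMSO (100%) and reference compound at 1 μM (0%). Reactions held MET 956-1390 at 0.1 ng/well, ATP at Km, biotinylated peptide, 5 mM MgCl2, 1 mM MnCl2, 1 mM DTT and 3% DMSO, and ran 40 min at room temperature before streptavidin-XL665/Eu-antibody detection.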

[2] = molecular target: AXL (phospho-AXL, Gas6-stimulated A-172 glioblastoma cells) (Homo sapiens (Human), UniProt P30530); experiment: AXL autophosphorylation ELISA in A-172 cells (Example E); assay type: cell-based
Sequence of AXL (phospho-AXL, Gas6-stimulated A-172 glioblastoma cells) (P30530 26-894): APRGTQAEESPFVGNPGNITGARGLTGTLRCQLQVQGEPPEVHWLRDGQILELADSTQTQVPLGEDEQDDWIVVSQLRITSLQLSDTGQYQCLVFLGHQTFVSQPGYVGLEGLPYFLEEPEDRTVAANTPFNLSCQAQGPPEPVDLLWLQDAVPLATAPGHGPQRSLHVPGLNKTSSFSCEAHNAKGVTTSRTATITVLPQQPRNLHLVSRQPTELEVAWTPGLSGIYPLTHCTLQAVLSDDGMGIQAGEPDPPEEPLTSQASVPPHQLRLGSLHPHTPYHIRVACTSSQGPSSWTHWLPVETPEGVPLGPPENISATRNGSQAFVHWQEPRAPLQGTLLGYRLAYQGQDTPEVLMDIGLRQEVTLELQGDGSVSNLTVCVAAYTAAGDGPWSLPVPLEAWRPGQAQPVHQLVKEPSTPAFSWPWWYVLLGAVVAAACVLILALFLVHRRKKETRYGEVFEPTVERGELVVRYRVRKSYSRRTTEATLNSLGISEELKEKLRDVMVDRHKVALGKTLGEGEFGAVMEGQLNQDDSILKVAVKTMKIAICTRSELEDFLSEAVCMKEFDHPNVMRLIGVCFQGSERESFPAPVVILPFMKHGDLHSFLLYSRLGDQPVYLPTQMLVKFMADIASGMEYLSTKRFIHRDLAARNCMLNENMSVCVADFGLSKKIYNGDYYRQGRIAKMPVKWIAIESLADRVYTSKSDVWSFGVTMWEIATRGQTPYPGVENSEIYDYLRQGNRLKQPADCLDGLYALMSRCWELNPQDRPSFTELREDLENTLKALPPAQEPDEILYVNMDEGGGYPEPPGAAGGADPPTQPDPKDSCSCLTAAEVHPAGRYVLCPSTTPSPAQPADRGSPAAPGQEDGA
Outline: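 Phospho-AXL in lysates was quantified by ELISA, normalised to DMSO (100%) and reference inhibitor (0%) controls. IC50 by 4-parameter logistic fit.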

[3] = molecular target: Met (phospho-Met, HGF-stimulated PC-3 prostate cancer cells) (Homo sapiens (Human), UniProt P08581); experiment: Met autophosphorylation ELISA in PC-3 cells (Example F); assay type: cell-based; settings: cellular activity; Met autophosphorylation ELISA in PC-3 cells; read-out: c-Met IC50
Sequence of Met (phospho-Met, HGF-stimulated PC-3 prostate cancer cells) (P08581 25-1390): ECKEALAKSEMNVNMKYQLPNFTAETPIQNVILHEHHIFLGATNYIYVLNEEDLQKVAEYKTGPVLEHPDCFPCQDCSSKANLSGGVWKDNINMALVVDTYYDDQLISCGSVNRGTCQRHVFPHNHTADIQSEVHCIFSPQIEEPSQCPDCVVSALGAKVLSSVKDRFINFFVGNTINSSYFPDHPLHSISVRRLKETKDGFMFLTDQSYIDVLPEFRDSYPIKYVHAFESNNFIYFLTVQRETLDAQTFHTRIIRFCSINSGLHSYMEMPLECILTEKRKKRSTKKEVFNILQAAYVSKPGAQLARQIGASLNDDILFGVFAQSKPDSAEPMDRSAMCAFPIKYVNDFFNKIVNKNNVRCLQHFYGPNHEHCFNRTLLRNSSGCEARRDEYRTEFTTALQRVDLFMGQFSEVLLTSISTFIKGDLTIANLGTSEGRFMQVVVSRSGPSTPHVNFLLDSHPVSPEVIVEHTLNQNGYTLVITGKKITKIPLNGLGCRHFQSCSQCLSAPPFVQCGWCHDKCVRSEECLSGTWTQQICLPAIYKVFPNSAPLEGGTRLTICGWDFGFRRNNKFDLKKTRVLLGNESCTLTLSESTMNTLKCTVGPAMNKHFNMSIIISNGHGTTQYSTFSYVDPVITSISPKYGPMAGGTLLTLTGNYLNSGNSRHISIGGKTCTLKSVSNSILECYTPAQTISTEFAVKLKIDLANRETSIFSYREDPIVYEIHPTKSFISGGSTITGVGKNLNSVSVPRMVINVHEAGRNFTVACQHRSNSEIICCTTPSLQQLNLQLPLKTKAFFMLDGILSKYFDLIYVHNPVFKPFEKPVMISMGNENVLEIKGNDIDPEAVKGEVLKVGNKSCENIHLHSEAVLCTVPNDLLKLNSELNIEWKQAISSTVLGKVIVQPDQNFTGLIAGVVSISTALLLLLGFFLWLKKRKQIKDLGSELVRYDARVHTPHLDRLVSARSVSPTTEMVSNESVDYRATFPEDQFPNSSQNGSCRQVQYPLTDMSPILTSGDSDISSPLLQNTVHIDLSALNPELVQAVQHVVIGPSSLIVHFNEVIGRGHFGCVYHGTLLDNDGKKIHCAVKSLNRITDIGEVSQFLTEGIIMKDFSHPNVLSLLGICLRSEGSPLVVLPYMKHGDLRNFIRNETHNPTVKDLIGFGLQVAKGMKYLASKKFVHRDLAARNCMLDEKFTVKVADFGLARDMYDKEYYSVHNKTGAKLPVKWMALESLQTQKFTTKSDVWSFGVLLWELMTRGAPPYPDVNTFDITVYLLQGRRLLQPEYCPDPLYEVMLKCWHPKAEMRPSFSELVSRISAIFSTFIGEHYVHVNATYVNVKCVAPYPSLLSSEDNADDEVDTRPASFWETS
Outline: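 IC50 values derive from a 4-parameter logistic fit of phospho-Met (panTyr) sandwich ELISA signals in PC-3 lysates, scaled between DMSO and reference-inhibitor wells. Cells, starved 3 h in serum-free medium, had 1 h compound exposure (8 doses, 0.3% DMSO) before 10 min stimulation with 100 ng/mL HGF.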

[4] = molecular target: KDR (phospho-KDR, VEGF165-stimulated HUVEC cells) (Homo sapiens (Human), UniProt P35968); experiment: KDR autophosphorylation ELISA in HUVEC cells (Example G); assay type: cell-based; settings: cellular activity; KDR autophosphorylation ELISA in HUVEC cells
Sequence of KDR (phospho-KDR, VEGF165-stimulated HUVEC cells) (P35968 20-1356): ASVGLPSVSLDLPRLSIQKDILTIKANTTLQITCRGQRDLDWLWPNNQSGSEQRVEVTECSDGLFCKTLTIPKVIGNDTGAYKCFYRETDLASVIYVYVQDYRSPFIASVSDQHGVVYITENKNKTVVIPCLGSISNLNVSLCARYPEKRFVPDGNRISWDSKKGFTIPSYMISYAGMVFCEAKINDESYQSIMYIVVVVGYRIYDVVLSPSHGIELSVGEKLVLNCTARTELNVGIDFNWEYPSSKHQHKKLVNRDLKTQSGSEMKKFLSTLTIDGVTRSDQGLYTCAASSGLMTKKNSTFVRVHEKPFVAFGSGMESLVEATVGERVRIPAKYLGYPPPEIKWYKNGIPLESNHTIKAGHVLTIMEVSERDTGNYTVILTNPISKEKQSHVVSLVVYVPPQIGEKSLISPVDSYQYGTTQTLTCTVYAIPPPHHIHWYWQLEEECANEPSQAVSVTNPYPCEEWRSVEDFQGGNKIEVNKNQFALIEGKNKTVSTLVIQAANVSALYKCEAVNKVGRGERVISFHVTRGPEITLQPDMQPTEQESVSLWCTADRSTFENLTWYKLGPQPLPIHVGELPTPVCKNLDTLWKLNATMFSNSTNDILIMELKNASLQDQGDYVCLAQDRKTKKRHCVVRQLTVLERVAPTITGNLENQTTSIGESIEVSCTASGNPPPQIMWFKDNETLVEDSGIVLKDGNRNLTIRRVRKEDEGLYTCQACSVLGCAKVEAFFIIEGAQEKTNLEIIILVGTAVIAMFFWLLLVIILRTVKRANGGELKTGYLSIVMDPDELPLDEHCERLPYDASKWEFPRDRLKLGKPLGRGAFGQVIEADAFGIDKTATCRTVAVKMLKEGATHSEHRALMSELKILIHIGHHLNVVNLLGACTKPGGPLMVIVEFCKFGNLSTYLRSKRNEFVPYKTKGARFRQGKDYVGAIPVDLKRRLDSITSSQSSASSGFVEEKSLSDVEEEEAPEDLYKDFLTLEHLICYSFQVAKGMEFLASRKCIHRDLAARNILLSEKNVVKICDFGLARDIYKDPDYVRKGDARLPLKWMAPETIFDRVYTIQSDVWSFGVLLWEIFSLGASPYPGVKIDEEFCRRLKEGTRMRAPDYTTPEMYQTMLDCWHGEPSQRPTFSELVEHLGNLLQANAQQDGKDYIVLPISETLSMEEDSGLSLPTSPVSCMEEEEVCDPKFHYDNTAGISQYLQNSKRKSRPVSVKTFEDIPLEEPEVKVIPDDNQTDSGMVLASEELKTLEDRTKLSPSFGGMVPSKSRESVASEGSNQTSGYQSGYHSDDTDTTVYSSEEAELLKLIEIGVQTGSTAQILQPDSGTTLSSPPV
Outline: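 HUVECs were serum-starved 24 h, given compound as an 8-point dilution series (0.3% DMSO final) for 1 h, then stimulated with 100 ng/mL VEGF165 for 5 min. Lysate phospho-KDR was quantified by sandwich ELISA against a phospho-KDR standard, and IC50s came from a 4-parameter logistic fit.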

[5] = molecular target: Mer (phospho-Mer, MERTK-transfected 293A cells) (Homo sapiens (Human), UniProt Q12866); experiment: Mer autophosphorylation ELISA in transient transfected 293A cells (Example H); assay type: cell-based; settings: cellular activity; Mer autophosphorylation ELISA in transient transfected 293A cells
Sequence of Mer (phospho-Mer, MERTK-transfected 293A cells) (Q12866 21-999): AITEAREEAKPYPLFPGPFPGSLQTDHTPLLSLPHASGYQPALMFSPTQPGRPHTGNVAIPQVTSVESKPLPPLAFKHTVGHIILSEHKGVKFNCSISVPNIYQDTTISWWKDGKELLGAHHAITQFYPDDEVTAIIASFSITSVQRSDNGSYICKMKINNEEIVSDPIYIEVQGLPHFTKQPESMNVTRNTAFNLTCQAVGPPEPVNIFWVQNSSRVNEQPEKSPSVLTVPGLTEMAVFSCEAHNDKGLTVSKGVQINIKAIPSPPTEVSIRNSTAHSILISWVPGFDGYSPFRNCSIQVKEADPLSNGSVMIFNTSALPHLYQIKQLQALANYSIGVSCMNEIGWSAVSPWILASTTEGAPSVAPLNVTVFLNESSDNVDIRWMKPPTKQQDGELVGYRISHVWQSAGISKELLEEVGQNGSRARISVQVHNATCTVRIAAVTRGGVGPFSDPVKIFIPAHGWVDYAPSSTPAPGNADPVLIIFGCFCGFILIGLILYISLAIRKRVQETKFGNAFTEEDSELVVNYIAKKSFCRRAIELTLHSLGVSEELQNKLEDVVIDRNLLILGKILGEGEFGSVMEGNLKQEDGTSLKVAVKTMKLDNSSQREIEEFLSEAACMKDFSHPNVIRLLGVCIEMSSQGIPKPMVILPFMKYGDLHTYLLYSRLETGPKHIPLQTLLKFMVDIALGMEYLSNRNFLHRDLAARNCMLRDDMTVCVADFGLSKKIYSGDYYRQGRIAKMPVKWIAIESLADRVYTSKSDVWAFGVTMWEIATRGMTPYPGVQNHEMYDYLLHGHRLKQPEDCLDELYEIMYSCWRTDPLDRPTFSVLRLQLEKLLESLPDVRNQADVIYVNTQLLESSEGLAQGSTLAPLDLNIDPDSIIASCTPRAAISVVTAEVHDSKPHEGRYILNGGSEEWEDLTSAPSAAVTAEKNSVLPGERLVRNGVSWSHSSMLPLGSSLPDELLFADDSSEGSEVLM
Outline: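 Inhibition of cellular Mer autophosphorylation is determined in 293A cells transiently expressing human MERTK after 1 h compound exposure (8 concentrations, serum-free, 0.3% DMSO). Phospho-Mer in clarified lysates is measured by ELISA, with DMSO and reference-inhibitor wells defining the 100% and 0% activity limits.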

[6] = cellular activity, AXL autophosphorylation ELISA in A-172 cells, read-out: Axl IC50

Sequence of Human MET (residues 956-1390) (P08581 956-1390): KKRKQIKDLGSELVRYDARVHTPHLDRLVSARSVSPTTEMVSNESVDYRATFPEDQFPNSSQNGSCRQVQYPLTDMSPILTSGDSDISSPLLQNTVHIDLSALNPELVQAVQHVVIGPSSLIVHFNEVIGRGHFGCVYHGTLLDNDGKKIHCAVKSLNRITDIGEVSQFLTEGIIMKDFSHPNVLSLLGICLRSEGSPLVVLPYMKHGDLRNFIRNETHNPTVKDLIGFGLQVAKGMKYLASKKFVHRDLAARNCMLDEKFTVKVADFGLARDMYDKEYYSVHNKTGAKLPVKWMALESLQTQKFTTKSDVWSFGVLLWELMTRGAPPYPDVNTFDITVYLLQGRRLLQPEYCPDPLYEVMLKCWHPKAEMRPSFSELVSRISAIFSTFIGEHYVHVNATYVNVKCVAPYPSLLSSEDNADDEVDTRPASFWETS

SMILES	IC50 ([1]; protocol of Example D-2 (other compounds))	IC50 [2, 6]	IC50 [3]	IC50 [4]	IC50 [5]	IC50 ([1]; protocol of Example D-2)	IC50 [2]
Cc1ccc(C(=O)Nc2ccc(Oc3ccnc4cnc(Cl)cc34)c(F)c2)c(=O)n1-c1ccc(F)cc1 [Compound 496, N-[4-[(6-chloro-1,7-naphthyridin-4-yl)oxy]-3-fluorophenyl]-1-(4-fluorophenyl)-6-methyl-2-oxopyridine-3-carboxamide]	–	< 100 nM	< 100 nM	< 100 nM	< 100 nM	–	–
COc1cc2nccc(Oc3ccc(NC(=O)c4cn(C)c(C5CC5)c(-c5ccc(F)cc5)c4=O)cc3F)c2nc1OC [Compound 728, 6-cyclopropyl-N-[4-[(6,7-dimethoxy-1,5-naphthyridin-4-yl)oxy]-3-fluorophenyl]-5-(4-fluorophenyl)-1-methyl-4-oxopyridine-3-carboxamide]	–	< 100 nM	< 100 nM	100 to 300 nM	< 100 nM	–	–
CCc1c(C)c(C(=O)Nc2ccc(Oc3ccnc4cc(OC)c(OC)nc34)cc2)c(=O)n(-c2ccc(F)cc2)c1C [Compound 331, N-[4-[(6,7-dimethoxy-1,5-naphthyridin-4-yl)oxy]phenyl]-5-ethyl-1-(4-fluorophenyl)-4,6-dimethyl-2-oxopyridine-3-carboxamide]	–	< 100 nM	< 100 nM	> 300 nM	< 100 nM	–	–
COc1cc2nccc(Oc3ccc(NC(=O)c4c(C)c(C(C)=O)c(C)n(-c5ccc(F)cc5)c4=O)cc3F)c2nc1OC [Compound 321, 5-Acetyl-N-[4-[(6,7-dimethoxy-1,5-naphthyridin-4-yl)oxy]-3-fluorophenyl]-1-(4-fluorophenyl)-4,6-dimethyl-2-oxopyridine-3-carboxamide]	–	–	< 100 nM	100 to 300 nM	< 100 nM	–	< 100 nM
COc1cc2nccc(Oc3ccc(NC(=O)c4cn5c(c(-c6ccc(F)cc6)c4=O)OC(C)C5)cc3F)c2nc1OC (centres unmarked) [Compound 759, N-[4-[(6,7-dimethoxy-1,5-naphthyridin-4-yl)oxy]-3-fluorophenyl]-8-(4-fluorophenyl)-2-methyl-7-oxo-2,3-dihydro-[1,3]oxazolo[3,2-a]pyridine-6-carboxamide]	–	< 100 nM	< 100 nM	< 100 nM	< 100 nM	–	–
COCc1nc(C)c(-c2ccc(F)cc2)c(O)c1C(=O)Nc1ccc(Oc2ccnc3cc(C)c(OC)nc23)c(F)c1 [Compound 469, N-[3-fluoro-4-[(6-methoxy-7-methyl-1,5-naphthyridin-4-yl)oxy]phenyl]-5-(4-fluorophenyl)-4-hydroxy-2-(methoxymethyl)-6-methylpyridine-3-carboxamide]	–	< 100 nM	< 100 nM	< 100 nM	< 100 nM	–	–
COc1cnc2c(Oc3ccc(NC(=O)c4c(C)ncc(-c5ccc(F)c(C)c5)c4O)cc3F)ccnc2c1 [Compound 795, N-[3-fluoro-4-[(7-methoxy-1,5-naphthyridin-4-yl)oxy]phenyl]-5-(4-fluoro-3-methylphenyl)-4-hydroxy-2-methylpyridine-3-carboxamide]	–	< 100 nM	< 100 nM	< 100 nM	< 100 nM	–	–
COc1cc2nccc(Oc3ccc(NC(=O)c4nnc(C)c(-c5ccc(F)cc5)c4OC)cc3F)c2cc1OC [Compound 571, N-[4-(6,7-Dimethoxyquinolin-4-yl)oxy-3-fluorophenyl]-5-(4-fluorophenyl)-4-methoxy-6-methylpyridazine-3-carboxamide]	–	< 100 nM	< 100 nM	< 100 nM	< 100 nM	–	–
COc1cnc2c(Oc3ccc(NC(=O)c4cn(CC(F)F)c(C)c(-c5ccc(F)cc5C)c4=O)cc3)ccnc2c1 [Compound 731, 1-(2,2-difluoroethyl)-5-(4-fluoro-2-methylphenyl)-N-[4-[(7-methoxy-1,5-naphthyridin-4-yl)oxy]phenyl]-6-methyl-4-oxopyridine-3-carboxamide]	–	< 100 nM	< 100 nM	> 300 nM	< 100 nM	–	–

Now from value to compound, other results behind:

IC50 ([1]; protocol of Example D-2 (other compounds))	IC50 [2, 6]	IC50 [3]	IC50 [4]	IC50 [5]	IC50 ([1]; protocol of Example D-2)	SMILES	IC50 [2]
< 100 nM	< 100 nM	< 100 nM	> 300 nM	< 100 nM	–	COc1cc2nccc(Oc3ccc(NC(=O)c4cn(C5CN(C)C5)cc(-c5ccc(F)cc5)c4=O)cc3F)c2nc1OC [Compound 52, N-[4-[(6,7-Dmethoxy-1,5-naphthyridin-4-yl)oxy]-3-fluorophenyl]-5-(4-fluorophenyl)-1-(1-methylazetidin-3-yl)-4-oxopyridine-3-carboxamide]	–
–	< 100 nM	< 100 nM	> 300 nM	< 100 nM	< 100 nM	COc1cc2nccc(Oc3ccc(NC(=O)c4cn(C5CNC5)cc(-c5ccc(F)cc5)c4=O)cc3F)c2nc1OC [Compound 576, 1-(Azetidin-3-yl)-N-[4-[(6,7-dimethoxy-1,5-naphthyridin-4-yl)oxy]-3-fluorophenyl]-5-(4-fluorophenyl)-4-oxopyridine-3-carboxamide]	–
–	< 100 nM	< 100 nM	100 to 300 nM	< 100 nM	–	COc1cc2nccc(Oc3ccc(NC(=O)c4c(C)c(F)cn(-c5ccc(F)cc5)c4=O)cc3)c2nc1OC [Compound 665, N-[4-[(6,7-dimethoxy-1,5-naphthyridin-4-yl)oxy]phenyl]-5-fluoro-1-(4-fluorophenyl)-4-methyl-2-oxopyridine-3-carboxamide]	–
–	< 100 nM	< 100 nM	< 100 nM	< 100 nM	–	C=C(C)c1cnc2c(Oc3ccc(NC(=O)c4nnc(C)c(-c5ccc(F)cc5)c4OC)cc3F)ccnc2c1 [Compound 478, 5-(4-fluorophenyl)-N-[3-fluoro-4-[(7-prop-1-en-2-yl-1,5-naphthyridin-4-yl)oxy]phenyl]-4-methoxy-6-methylpyridazine-3-carboxamide]	–
–	< 100 nM	< 100 nM	< 100 nM	< 100 nM	–	C=C(C)c1cnc2c(Oc3ccc(NC(=O)c4c(C)nc(C)n(-c5ccc(F)cc5)c4=O)cc3F)ccnc2c1 [Compound 466, 1-(4-fluorophenyl)-N-[3-fluoro-4-[(7-prop-1-en-2-yl-1,5-naphthyridin-4-yl)oxy]phenyl]-2,4-dimethyl-6-oxopyrimidine-5-carboxamide]	–
–	< 100 nM	< 100 nM	< 100 nM	< 100 nM	–	COc1cc2nccc(Oc3ccc(NC(=O)c4c(C)nc(C)c(-c5ccc(F)cc5C)c4O)cc3F)c2nc1Cl [Compound 736, N-[4-[(6-chloro-7-methoxy-1,5-naphthyridin-4-yl)oxy]-3-fluorophenyl]-5-(4-fluoro-2-methylphenyl)-4-hydroxy-2,6-dimethylpyridine-3-carboxamide]	–
